In the METLIN SMRT retention time set (Domingo-Almenara et al. 2019):

Assay: gradient 5% acetonitrile 3 min, to 50% in 2 min, to 85% in 15 min, held 3 min, 100 µL/min
Conditions: column: Zorbax Extend-C18 2.1 x 50 mm; eluents: water / acetonitrile, 0.1% formic acid
In short: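 Mixtures of ~100 pure standards were chromatographed on a Zorbax Extend-C18 column (2.1 × 50 mm, 1.8 μm) at 100 μL/min using water and acetonitrile, each with 0.1% formic acid. Detection used a quadrupole time-of-flight mass spectrometer in positive and negative ionization mode, and data collection spanned 3 months. Retention time was obtained from adduct peaks picked computationally and each checked manually.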

Compound	RP-LC retention time [s]
COCCNc1ncc(C(=O)O)c(-c2cccc(C)c2)n1	700
Cc1noc(C)c1S(=O)(=O)N1CCC(n2c(C)cnc2-c2cccnc2)C1 (stereo not given)	616
Cc1ccn2cc(-c3ccc(NS(=O)(=O)c4cccc(F)c4)cc3)nc2n1	651
COc1ccc(-c2ncc(C(=O)O)c(=O)[nH]2)cc1OC	591
Cn1c(=O)c(N2CCC(C(=O)NCCc3ccco3)CC2)nc2ccccc21	794
O=C(NCCC1CCN(C(=O)Nc2ccccc2F)CC1)c1ccco1	1170
COC(=O)C1=CN(CC(=O)NCc2ccc(OC)cc2)S(=O)(=O)N=C1C	1110
COCc1c(C(=O)O)nnn1-c1ccc2c(c1)OCCO2	666
O=S(=O)(c1cc(F)ccc1F)N1CCN(Cc2cccc(F)c2)C2(CCOCC2)C1	886
CCn1cc(C2=CCN(C(=O)Nc3ccc(SC)cc3)CC2)c2cccnc21	910
COc1cccc(Cn2c(=O)c3sccc3n(Cc3nc(-c4ccccc4C)no3)c2=O)c1	1150
Cn1nnc2c(Nc3ccc(Br)cc3F)ncnc21	761
O=C(C1CCCN(c2ccc(-c3ccccc3)nn2)C1)N1CCN(C2CCCCC2)CC1 (stereo not given)	597
Cc1ccsc1CN1CCC(n2c(C)cnc2-c2ccncc2)C1 (stereo not given)	506
Cc1ccc2nc(-c3ccc(C)c(NC(=O)C4CCCCC4)c3)[nH]c2c1	735
O=C(c1cn2ccnc(-c3ccc(F)cc3)c2n1)N1CCN(c2ncccn2)CC1	756
Cc1ccc(CNC(=O)N2CCN(c3cnn4c(C)nnc4c3)CC2)cc1	568
O=C(CN1C(=O)CCCc2cc(S(=O)(=O)N3CCCC3)ccc21)NCc1ccc(F)cc1	792
COc1ccc(Cl)cc1C(=O)CN1C(=O)COc2ccccc2C1=O	988
CCOC(=O)c1sc(NC(=O)c2cc3ccccc3o2)nc1C	974
CC(C)c1nccn1C1CN(C(=O)CCCc2c[nH]c3ccccc23)C1	631
O=C(Cc1ccc(NC(=O)c2cnc3ccccc3n2)cc1)NCC(F)(F)F	756
O=C(NCc1cccc(C(F)(F)F)c1)C1CCCN(c2nccnc2Oc2ccccc2)C1 (stereo not given)	1040

Compound	RP-LC retention time [s]
COc1cc(NC(=O)Cn2nc(N3CCCC(C)C3)c3ccccc3c2=O)cc(OC)c1 (stereo not given)	1100
CC(C)CCN1CCC(N2CCN(S(=O)(=O)c3ccc(F)cc3F)CC2)C1=O (stereo not given)	690
Cc1ccc(CNS(=O)(=O)c2cn(CC(C)C)c3ncccc23)cc1	1050
CC(C)(C)C(=O)Nc1nnc(SCc2nnc(-c3ccc4c(c3)OCO4)o2)s1	843
CC(C)Nc1ccc2nnc(C3CCC3)n2n1	801
COc1cccc(-c2nc(-c3ccc4c(c3)ncn4CCN3CCCC3)no2)c1	653
NC(=O)c1ccc(OCC(O)CN2CC=C(c3ccc(F)cc3)CC2)cc1 (stereo not given)	512
CCC(=O)N1CCc2c(sc3ncnc(N4CCc5ccccc54)c23)C1	734
COc1ccc(NC(=O)C2CCc3nc(N4CCOCC4)ncc3C2)cc1F (stereo not given)	718
COc1ccc(CNC(=O)Cn2nc3c(Oc4ccccc4C)nccn3c2=O)cc1	957
COc1ccc(-c2nc3cccc(C)n3c2Nc2ccc(C)cc2)cc1	757
COC(=O)c1c(C)[nH]c(C(=O)N2CCCC(C(=O)NC3CCCCCC3)C2)c1C (stereo not given)	794
CCc1nc(-c2c(C)cc(C)nc2NC(=O)c2cc(C)cc(C)c2)no1	605
CCC1Oc2ccc(S(=O)(=O)N3CCC(C(=O)N(C)Cc4ccccc4)CC3)cc2NC1=O (stereo not given)	872
COCCN1C(=O)c2ccccc2C(C(=O)Nc2ccc(NC(C)=O)cc2)C12CCCCC2 (stereo not given)	706
COc1cc2c(cc1OC)C1C(C(=O)NCCCN3CCCCCC3)c3ccccc3C(=O)N1CC2 (stereo not given)	617
O=C(Nc1ccc(Cl)cc1)N1CCC(n2c(C(F)(F)F)nc3cccnc32)CC1	942
CCN1C(=O)COc2cc(-c3noc(C(=O)NC4CCCC4)n3)ccc21	936
COc1ccccc1OCC(=O)Nc1ccc2c(c1)N(C(=O)c1ccco1)CCC2	881
CCc1ccc(-c2cc3c(=O)n(Cc4noc(CN5CCCCC5CC)n4)ccn3n2)cc1 (stereo not given)	778
Cc1ccc(N(C)S(=O)(=O)c2cc(-c3[nH]ncc3C(=O)N3CCCC3)oc2C)cc1	776
CCOc1cc(=O)n2c(c1C(=O)Nc1cc(F)ccc1F)CCCC2	748
O=C(N[C@@H]1CN(c2ncccn2)C[C@H]1CO)c1ccoc1	567

Compound	RP-LC retention time [s]
CCCN1C(=O)c2cccnc2Sc2cc(C(=O)NC3CCCC3)ccc21	837
CCOC(=O)c1c(C)c(CCC(=O)NCCN2CCN(C)CC2)n(C)c1C	596
Cc1ccc(F)cc1NC(=O)c1cc(C(C)C)n2nccc2n1	1230
O=C(COc1ccccc1)Nc1cnc(N2CCOCC2)nc1	746
O=C(Cc1c[nH]c2ccccc12)NC1CCN(c2cc(-c3ccc(Cl)cc3)[nH]n2)C1 (stereo not given)	743
CCc1nncn1C1CCN(S(=O)(=O)c2ccc(Cl)c(C)c2)CC1	716
Cc1cccc(N2CCN(Cc3nc(-c4ccc(N5CCOCC5)nc4)no3)CC2)c1C	945
COc1ccc(-c2cn3c(CC(=O)NCc4cccs4)csc3n2)cc1OC	678
CCCc1cc(N2CCN(C(=O)COc3ccccc3)CC2)nc2nnc(C)n12	634
[O-][n+]1ccc(CC(O)(C(F)(F)F)C(F)(F)F)cc1	674
O=C(CN1CCc2[nH]c3c(Cl)cccc3c(=O)c2C1)NCc1ccccc1	598
CC(C)CNC(=O)c1ccc2c(c1)Sc1ncccc1C(=O)N2C1CC1	752
COCCNC(=O)C1CCN(c2nc3ccc(-c4ccccc4F)nc3s2)CC1	827
CCc1ccc(CNC(=O)C2(CC)CCCCC(=O)N2)cc1 (stereo not given)	771
COc1cn(CC(=O)Nc2cccc(C)c2C)c(CN2CCCCCC2)cc1=O	574
CCOc1ccc(S(=O)(=O)N(CC(=O)N2CCNCC2)CC2CCCN2CC)cc1 (stereo not given)	585
CCOC(=O)c1cc(C)nc2c1c(=O)n(Cc1cccc(F)c1)c(=O)n2C	1010
CCN1CCN(CCNC(=O)Cn2c(=O)n(-c3ccc(F)cc3)c3ncccc32)CC1	583
O=C(NCc1ccc(F)cc1F)c1ccc(NC(=O)C2CC2)cc1N1CCOCC1	798
CCc1nc(-c2csc(S(=O)(=O)N3CCC(C(=O)Nc4ccccc4F)CC3)c2)no1	981
CSc1ccc(NC(=O)Nc2ccccc2C(N)=O)cc1	846
Cc1ccc(CNC(=O)c2c(C)sc3ccn(CC(C)C)c(=O)c23)o1	683
CCn1c(CN2CCN(S(C)(=O)=O)CC2)nc2cc(NC(C)=O)ccc21	588

Compound	RP-LC retention time [s]
CCOCCCNC(=O)N1CCC2(CC1)Nc1cc(F)ccc1-n1cccc12	858
Cc1ccc2c(c1)sc1nncn12	749
CC(C)(C)NCC(O)COc1ccc(NC(=O)NC2CCCCC2)cc1 (stereo not given)	628
O=C([C@@H]1COCC(=O)N1Cc1ccccc1)N1CCN(Cc2ccc3c(c2)OCO3)CC1	606
O=C(Nc1nccs1)c1ccccc1OCc1nc(-c2ccccc2)no1	953
C=CCn1c(=O)c2ccccc2n(Cc2nc(-c3cc(OC)cc(OC)c3)no2)c1=O	1020
CC(C)N1C(=O)c2cccnc2Sc2cc(C(=O)N3CCCCC3)ccc21	769
O=c1c(Cl)c(N2CCN(c3ccccn3)CC2)cnn1-c1nc2ccccc2s1	639
CC(C)c1nnc(C2CN(Cc3ccc(F)c(Cl)c3)CC23CCN(C)CC3)o1 (stereo not given)	591
CC1CCN(C(=O)Cc2nnc(-c3ccccc3)o2)CC1	770
Clc1ccc(-c2nc3ccccn3c2Nc2ccc3c(c2)OCO3)cc1	727
Cc1cc(C)cc(-n2ccn(Cc3nc(-c4ccc(C)cc4C)no3)c(=O)c2=O)c1	1020
COc1cccc(NC(=O)Nc2ccc3nc4n(c(=O)c3c2)CCC4)c1	673
O=C(Nc1cc(Cl)ccc1F)C1CC(=O)N(c2ccc3c(c2)CCN3C(=O)C2CC2)C1 (stereo not given)	835
O=C([C@@H]1C[C@H](F)CN1S(=O)(=O)c1ccc2c(c1)OCCO2)N1CCCCC1	759
O=C(Cc1ccccc1Br)NC1CCCN(c2cc(-c3ccccc3)[nH]n2)C1 (stereo not given)	811
CCn1c(CN(C)C(=O)Nc2ccc3c(c2)OCCO3)nc2cc(C(=O)N(C)C)ccc21	611
CCOC(=O)C1=C(CN2CCN(c3ccccn3)CC2)NC(=O)NC1c1cccs1 (stereo not given)	919
CCOc1ccc(OCC)c(NC(=O)C(=O)c2ccc[nH]2)c1	1070
CCn1cnc(S(=O)(=O)N2CCCC(C(=O)Nc3cccc(C(F)(F)F)c3)C2)c1 (stereo not given)	871
COc1cc(-c2nnc(-c3ccc(C)c(S(=O)(=O)N4CCC(C)CC4)c3)o2)cc(OC)c1OC	1170
